Experimental data: ChEMBL document CHEMBL3885861, “Open TG-GATES”

Organism: Rattus norvegicus
Experiment: Open TG-GATES - Regimen: Single
Assay type: toxicity, organism-based, Sprague-Dawley
Set-up: regimen Single, gender Male, age 6 weeks
Settings: in vivo, po, 0 mg/kg, route gavage, dose level Control; for APTT / Bas / Eos / Fbg / Hb / Ht / Lym / MCH / MCHC / MCV / Mono / Neu / PT / RBC / Ret / WBC / Plat: tissue Blood; for KIDNEY_L / KIDNEY_R / KIDNEY_TOTAL: tissue Kidney; for LIVER: tissue Liver; for ALP / ALT / AST / BUN / CRE / Ca / DBIL / GLC / IP / K / LDH / Na / PL / RALB / TBIL / TC / TG / TP / gamma-GTP: tissue Plasma

CSc1ccc2c(c1)N(CCC1CCCCN1C)c1ccccc1S2 (configuration not stated) [THIORIDAZINE]
TERMINAL_BW (3 h): 216.6 g | APTT (3 h): 16 s | Bas (3 h): 0% | Eos (3 h): 0.6% | Fbg (3 h): 206.6 mg/dL | Hb (3 h): 12.9 g/dL | Ht (3 h): 38.9% | Lym (3 h): 82.2% | MCH (3 h): 21.8 pg | MCHC (3 h): 33.2% | MCV (3 h): 65.7 fL | Mono (3 h): 7.4% | Neu (3 h): 10% | PT (3 h): 12.1 s | RBC (3 h): 592 x10_4/ul | Ret (3 h): 8.6% | WBC (3 h): 109.6 x10_2/uL | KIDNEY_L (3 h): 1 g | KIDNEY_R (3 h): 1 g | KIDNEY_TOTAL (3 h): 2 g | LIVER (3 h): 10.6 g | ALP (3 h): 789.2 IU/L | ALT (3 h): 37.2 IU/L | AST (3 h): 71 IU/L | BUN (3 h): 12.4 mg/dL | CRE (3 h): 0.5 mg/dL | Ca (3 h): 11.4 mg/dL | DBIL (3 h): 0.006 mg/dL | GLC (3 h): 197.6 mg/dL | IP (3 h): 10.1 mg/dL | K (3 h): 5 meq/L | LDH (3 h): 94.4 IU/L | Na (3 h): 137.4 meq/L | PL (3 h): 136.2 mg/dL | RALB (3 h): 3.8 g/dL | TBIL (3 h): 0.3 mg/dL | TC (3 h): 72.2 mg/dL | TG (3 h): 93.4 mg/dL | TP (3 h): 5.5 g/dL | gamma-GTP (3 h): 0.8 IU/L | TERMINAL_BW (6 h): 212.3 g | APTT (6 h): 16.3 s | Bas (6 h): 0% | Eos (6 h): 1% | Fbg (6 h): 216.8 mg/dL | Hb (6 h): 13.7 g/dL | Ht (6 h): 40.9% | Lym (6 h): 74% | MCH (6 h): 21.5 pg | MCHC (6 h): 33.3% | MCV (6 h): 64.4 fL | Mono (6 h): 8.2% | Neu (6 h): 17.2% | PT (6 h): 12.1 s | Plat (6 h): 98.4 x10_4/uL | RBC (6 h): 635.6 x10_4/ul | Ret (6 h): 7.7% | WBC (6 h): 117.4 x10_2/uL | KIDNEY_L (6 h): 0.9 g | KIDNEY_R (6 h): 1 g | KIDNEY_TOTAL (6 h): 1.9 g | LIVER (6 h): 9.5 g | ALP (6 h): 834 IU/L | ALT (6 h): 28 IU/L | AST (6 h): 60.4 IU/L | BUN (6 h): 12.4 mg/dL | CRE (6 h): 0.5 mg/dL | Ca (6 h): 10.9 mg/dL | DBIL (6 h): 0.016 mg/dL | GLC (6 h): 189 mg/dL | IP (6 h): 10.1 mg/dL | K (6 h): 5 meq/L | LDH (6 h): 100.4 IU/L | Na (6 h): 137.4 meq/L | PL (6 h): 147 mg/dL | RALB (6 h): 3.8 g/dL | TBIL (6 h): 0.4 mg/dL | TC (6 h): 80.2 mg/dL | TG (6 h): 84.4 mg/dL | TP (6 h): 5.5 g/dL | gamma-GTP (6 h): 2 IU/L | TERMINAL_BW (9 h): 210.2 g | APTT (9 h): 16.6 s | Bas (9 h): 0% | Eos (9 h): 1.2% | Fbg (9 h): 221.4 mg/dL | Hb (9 h): 13.4 g/dL | Ht (9 h): 40.6% | Lym (9 h): 73.2% | MCH (9 h): 21.6 pg | MCHC (9 h): 33.1% | MCV (9 h): 65.4 fL | Mono (9 h): 8.4% | Neu (9 h): 17.2% | PT (9 h): 12.2 s | Plat (9 h): 111.7 x10_4/uL | RBC (9 h): 620.6 x10_4/ul | Ret (9 h): 7.6% | WBC (9 h): 117.1 x10_2/uL | KIDNEY_L (9 h): 0.9 g | KIDNEY_R (9 h): 1 g | KIDNEY_TOTAL (9 h): 1.9 g | LIVER (9 h): 8.7 g | ALP (9 h): 724 IU/L | ALT (9 h): 30.6 IU/L | AST (9 h): 67.4 IU/L | BUN (9 h): 12.2 mg/dL | CRE (9 h): 0.5 mg/dL | Ca (9 h): 11.1 mg/dL | DBIL (9 h): 0.034 mg/dL | GLC (9 h): 197.6 mg/dL | IP (9 h): 10.7 mg/dL | K (9 h): 4.9 meq/L | LDH (9 h): 63 IU/L | Na (9 h): 139.6 meq/L | PL (9 h): 147.4 mg/dL | RALB (9 h): 4 g/dL | TBIL (9 h): 0.3 mg/dL | TC (9 h): 87.6 mg/dL | TG (9 h): 35.8 mg/dL | TP (9 h): 5.6 g/dL | gamma-GTP (9 h): 1.2 IU/L | TERMINAL_BW (24 h): 232.2 g | APTT (24 h): 15.8 s | Bas (24 h): 0% | Eos (24 h): 0.8% | Fbg (24 h): 225 mg/dL | Hb (24 h): 13.2 g/dL | Ht (24 h): 38.9% | Lym (24 h): 73% | MCH (24 h): 22 pg | MCHC (24 h): 33.9% | MCV (24 h): 64.9 fL | Mono (24 h): 9.4% | Neu (24 h): 16.8% | PT (24 h): 12.2 s | Plat (24 h): 107.1 x10_4/uL | RBC (24 h): 600.2 x10_4/ul | Ret (24 h): 8.3% | WBC (24 h): 127.4 x10_2/uL | KIDNEY_L (24 h): 1 g | KIDNEY_R (24 h): 1 g | KIDNEY_TOTAL (24 h): 2 g | LIVER (24 h): 11.4 g | ALP (24 h): 895 IU/L | ALT (24 h): 36 IU/L | AST (24 h): 65.2 IU/L | BUN (24 h): 18.4 mg/dL | CRE (24 h): 0.5 mg/dL | Ca (24 h): 11 mg/dL | DBIL (24 h): 0.016 mg/dL | GLC (24 h): 193.4 mg/dL | IP (24 h): 8.1 mg/dL | K (24 h): 5.1 meq/L | LDH (24 h): 73 IU/L | Na (24 h): 138.4 meq/L | PL (24 h): 150.8 mg/dL | RALB (24 h): 3.9 g/dL | TBIL (24 h): 0.3 mg/dL | TC (24 h): 81.6 mg/dL | TG (24 h): 87.8 mg/dL | TP (24 h): 5.7 g/dL
